Consider one compound from ChEMBL document CHEMBL4311992, “Discovery of 3-(((9H-purin-6-yl)amino)methyl)-4,6-dimethylpyridin-2(1H)-one derivatives as novel tubulin polymerization inhibitors for treatment of cancer” (Eur J Med Chem, 2019).

The inhibition is the drop in the measured response relative to a control, in per cent.

The target of assay [1] is Vascular endothelial growth factor receptor 2 (Homo sapiens) (UniProt P35968). The assay can be described thus: Inhibition of recombinant human KDR (790 to end residues) assessed as residual activity at 10 uM using myelin basic protein substrate measured after 40 mins in presence of [gamma33P]ATP by scintillation counting method.
The target in assay [2] is Non-receptor tyrosine-protein kinase TYK2 (Homo sapiens) (UniProt P29597). In words: Inhibition of human TYK2 (875 to end residues) using GGMEDIYFEFMGGKKK as substrate measured after 40 mins in presence of [gamma33P]ATP by scintillation counting method. Set-up: scale not given: the % may be the effect or the level left.
Assay [3] has as its system CDK18/Cyclin Y (Homo sapiens), Q07002+Q8ND76 [T166M]. The assay can be described thus: Inhibition of recombinant full length human cyclinY/CDK18 T166M mutant assessed as residual activity at 10 uM using YRRAAVPPSPSLS as substrate measured after 40 mins in presence of [gamma33P]ATP by scintillation counting method. It counts as protein-complex assay.
Assay [4] concerns Hepatocyte growth factor receptor (Homo sapiens), P08581 [M1250T]. The assay can be described thus: Inhibition of recombinant human MET A1209G/V1290L/M1268T mutant (974 to end residues) assessed as residual activity at 10 uM using KKKGQEEEYVFIE as substrate measured after 40 mins in presence of [gamma33P]ATP by scintillation counting method.
For assay [5], the target named is Ribosomal protein S6 kinase alpha-5 (Homo sapiens) (UniProt O75582). In words: Inhibition of recombinant human MSK1 (2 to end residues) assessed as residual activity at 10 uM using GRPRTSSFAEGKK as substrate measured after 40 mins in presence of [gamma33P]ATP by scintillation counting method.
Chain of Ribosomal protein S6 kinase alpha-5 (Homo sapiens) (O75582 whole entry, looked up, the tested form may be a part): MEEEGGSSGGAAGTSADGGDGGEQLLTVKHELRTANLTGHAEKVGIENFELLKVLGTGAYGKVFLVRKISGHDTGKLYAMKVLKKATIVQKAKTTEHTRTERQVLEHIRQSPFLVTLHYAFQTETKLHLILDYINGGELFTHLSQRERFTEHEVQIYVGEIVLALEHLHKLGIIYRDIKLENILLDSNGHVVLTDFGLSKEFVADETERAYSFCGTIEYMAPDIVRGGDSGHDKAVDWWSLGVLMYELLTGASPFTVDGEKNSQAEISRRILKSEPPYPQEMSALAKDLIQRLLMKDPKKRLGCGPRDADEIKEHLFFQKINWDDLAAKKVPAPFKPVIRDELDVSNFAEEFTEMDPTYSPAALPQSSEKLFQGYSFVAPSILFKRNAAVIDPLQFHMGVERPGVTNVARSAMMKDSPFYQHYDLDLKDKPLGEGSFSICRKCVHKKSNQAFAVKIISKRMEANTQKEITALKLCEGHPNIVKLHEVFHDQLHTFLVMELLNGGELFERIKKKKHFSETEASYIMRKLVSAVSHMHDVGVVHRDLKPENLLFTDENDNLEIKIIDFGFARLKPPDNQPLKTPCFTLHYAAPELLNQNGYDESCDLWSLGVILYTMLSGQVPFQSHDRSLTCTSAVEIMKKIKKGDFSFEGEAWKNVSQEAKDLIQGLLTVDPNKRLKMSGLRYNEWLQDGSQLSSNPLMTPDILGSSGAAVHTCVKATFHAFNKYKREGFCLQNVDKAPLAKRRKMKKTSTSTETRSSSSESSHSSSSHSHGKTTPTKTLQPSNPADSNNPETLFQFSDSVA
Assay [6] deals with Receptor tyrosine-protein kinase erbB-4 (Homo sapiens) (UniProt Q15303). The assay can be described thus: Inhibition of recombinant human ErbB4 (706 to 991 residues) assessed as residual activity at 10 uM using poly (Glu, Tyr) 4:1 as substrate measured after 40 mins in presence of [gamma33P]ATP by scintillation counting method.
Chain of Receptor tyrosine-protein kinase erbB-4 (Homo sapiens) (Q15303 whole entry, the tested form may be a part): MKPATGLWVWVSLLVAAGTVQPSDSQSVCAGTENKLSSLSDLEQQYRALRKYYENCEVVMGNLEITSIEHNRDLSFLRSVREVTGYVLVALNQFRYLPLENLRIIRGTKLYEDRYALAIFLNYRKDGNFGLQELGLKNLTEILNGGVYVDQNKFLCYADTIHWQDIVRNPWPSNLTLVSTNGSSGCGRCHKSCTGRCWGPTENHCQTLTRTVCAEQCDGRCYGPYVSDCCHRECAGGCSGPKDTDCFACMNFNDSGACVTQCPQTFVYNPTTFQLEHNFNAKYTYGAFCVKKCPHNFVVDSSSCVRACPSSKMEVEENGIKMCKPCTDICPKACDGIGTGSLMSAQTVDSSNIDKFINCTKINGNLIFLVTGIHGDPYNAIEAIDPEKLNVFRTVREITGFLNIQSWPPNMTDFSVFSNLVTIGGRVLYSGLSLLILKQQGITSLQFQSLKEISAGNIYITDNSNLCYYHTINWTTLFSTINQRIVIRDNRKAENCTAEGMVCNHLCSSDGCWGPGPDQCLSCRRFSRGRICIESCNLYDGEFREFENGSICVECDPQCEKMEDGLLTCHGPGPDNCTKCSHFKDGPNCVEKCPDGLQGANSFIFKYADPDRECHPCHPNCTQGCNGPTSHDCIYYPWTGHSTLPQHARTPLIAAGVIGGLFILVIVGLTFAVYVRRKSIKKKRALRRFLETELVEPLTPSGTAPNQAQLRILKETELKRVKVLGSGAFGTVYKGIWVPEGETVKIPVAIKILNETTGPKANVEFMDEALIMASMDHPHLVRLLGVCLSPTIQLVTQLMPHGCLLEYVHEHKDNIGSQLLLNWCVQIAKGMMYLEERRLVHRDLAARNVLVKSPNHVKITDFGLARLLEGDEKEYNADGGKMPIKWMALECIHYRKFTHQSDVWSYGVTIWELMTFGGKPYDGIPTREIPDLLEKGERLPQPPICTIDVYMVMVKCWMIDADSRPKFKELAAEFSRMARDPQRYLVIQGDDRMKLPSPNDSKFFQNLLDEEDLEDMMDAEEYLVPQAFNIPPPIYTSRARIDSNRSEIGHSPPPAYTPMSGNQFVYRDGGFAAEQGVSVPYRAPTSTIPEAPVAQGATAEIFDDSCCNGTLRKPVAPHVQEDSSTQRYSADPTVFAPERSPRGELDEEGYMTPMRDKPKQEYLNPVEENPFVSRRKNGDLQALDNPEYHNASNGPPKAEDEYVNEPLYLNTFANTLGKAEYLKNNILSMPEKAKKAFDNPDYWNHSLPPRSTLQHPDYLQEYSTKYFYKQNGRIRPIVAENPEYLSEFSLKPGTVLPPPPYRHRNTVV
The target of assay [7] is Serine/threonine-protein kinase SBK1 (Homo sapiens) (UniProt Q52WX2). In words: Inhibition of recombinant full-length human SBK1 assessed as residual activity at 10 uM using KKLRRTLSVA as substrate measured after 120 mins in presence of [gamma33P]ATP by scintillation counting method.
Chain of Serine/threonine-protein kinase SBK1 (Homo sapiens) (Q52WX2 whole entry): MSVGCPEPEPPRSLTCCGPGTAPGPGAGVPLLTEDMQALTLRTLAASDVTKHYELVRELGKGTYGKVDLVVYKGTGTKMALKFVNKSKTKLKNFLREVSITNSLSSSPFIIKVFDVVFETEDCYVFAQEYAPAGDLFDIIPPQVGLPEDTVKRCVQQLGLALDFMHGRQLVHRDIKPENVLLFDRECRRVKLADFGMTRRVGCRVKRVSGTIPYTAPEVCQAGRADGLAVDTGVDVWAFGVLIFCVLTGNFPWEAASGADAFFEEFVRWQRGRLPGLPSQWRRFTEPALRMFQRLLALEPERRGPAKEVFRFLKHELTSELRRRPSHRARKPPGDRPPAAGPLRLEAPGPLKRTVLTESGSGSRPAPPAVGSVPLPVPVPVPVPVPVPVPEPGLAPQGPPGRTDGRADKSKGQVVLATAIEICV
The subject of assay [8] is HCT-116. The assay can be described thus: Induction of apoptosis in human HCT116 cells assessed as early apoptotic cells at 100 nM measured after 48 hrs by Annexin V-FITC/propidium iodide staining-based flow cytometry (reference value: 0.418%). The class given is functional. For orientation: In flow cytometry, cells or beads pass a laser one at a time.
Assay [9] has as its system HCT-116. The assay can be described thus: Inhibition of colony formation in human HCT116 cells at 50 nM after 14 days by crystal violet staining-based microscopic analysis. The class given is functional. Particulars: HCT-116, 336 h.
Assay [10] has as its target Phosphatidylinositol 4-phosphate 5-kinase type-1 gamma (Homo sapiens) (UniProt O60331). The assay can be described thus: Inhibition of recombinant full-length human PIP5K1gamma assessed as residual activity at 10 uM using phosphatidylinositol 4-phosphate as substrate measured after 40 mins by HTRF assay. On the technique in general: TR-FRET usually uses a lanthanide donor and a delayed reading to cut background.

Assay [11] has as its target Mitogen-activated protein kinase kinase kinase kinase 1 (Homo sapiens) (UniProt Q92918). In words: Inhibition of recombinant human HPK1 (1 to 346 residues) assessed as residual activity at 10 uM using myelin basic protein as substrate measured after 40 mins in presence of [gamma33P]ATP by scintillation counting method.
Assay [12] deals with Tyrosine-protein kinase HCK (Homo sapiens) (UniProt P08631). In words: Inhibition of recombinant human activated HCK (230 to 497 residues) assessed as residual activity at 10 uM using GGMEDIYFEFMGGKKK as substrate measured after 40 mins in presence of [gamma33P]ATP by scintillation counting method.
Assay [13] deals with Serine/threonine-protein kinase 32C (Homo sapiens) (UniProt Q86UX6). In words: Inhibition of recombinant full-length human STK32C assessed as residual activity at 10 uM using casein as substrate measured after 120 mins in presence of [gamma33P]ATP by scintillation counting method.
The next assay addresses Tubulin (Homo sapiens) (UniProt P68371+Q9H4B7+P0DPH7+P68366+Q13509+Q71U36+P04350+Q3ZCM7+P07437+P68363+Q9BQE3+Q6PEY2+Q13885+Q9BVA1+Q9BUF5). The assay can be described thus: Disruption of microtubule network in human SW620 cells assessed as microtubule condensation at 50 nM incubated for 18 hrs by FITC/DAPI staining-based confocal microscopic analysis. It counts as cell-based.

The target of assay [14] is Serine/threonine-protein kinase 32B (Homo sapiens) (UniProt Q9NY57). The assay can be described thus: Inhibition of recombinant full-length human STK32B assessed as residual activity at 10 uM using casein as substrate measured after 120 mins in presence of [gamma33P]ATP by scintillation counting method.
Chain of Serine/threonine-protein kinase 32B (Homo sapiens) (Q9NY57 whole entry): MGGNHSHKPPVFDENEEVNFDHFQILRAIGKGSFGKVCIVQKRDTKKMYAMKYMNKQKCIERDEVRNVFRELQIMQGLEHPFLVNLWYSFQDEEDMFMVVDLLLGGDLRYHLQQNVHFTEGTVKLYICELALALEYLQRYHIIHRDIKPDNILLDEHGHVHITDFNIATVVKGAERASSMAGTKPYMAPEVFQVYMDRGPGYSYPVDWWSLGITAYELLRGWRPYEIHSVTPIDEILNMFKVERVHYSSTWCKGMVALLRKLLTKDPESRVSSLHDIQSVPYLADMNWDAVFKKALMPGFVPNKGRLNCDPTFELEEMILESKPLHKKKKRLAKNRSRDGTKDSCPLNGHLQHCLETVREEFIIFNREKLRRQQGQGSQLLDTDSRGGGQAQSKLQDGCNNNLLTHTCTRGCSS
In assay [15] the target is Ribosomal protein S6 kinase alpha-4 (Homo sapiens) (UniProt O75676). The assay can be described thus: Inhibition of recombinant human MSK2 (2 to end residues) assessed as residual activity at 10 uM using GRPRTSSFAEGKK as substrate measured after 40 mins in presence of [gamma33P]ATP by scintillation counting method.
Chain of Ribosomal protein S6 kinase alpha-4 (Homo sapiens) (O75676 whole entry, looked up): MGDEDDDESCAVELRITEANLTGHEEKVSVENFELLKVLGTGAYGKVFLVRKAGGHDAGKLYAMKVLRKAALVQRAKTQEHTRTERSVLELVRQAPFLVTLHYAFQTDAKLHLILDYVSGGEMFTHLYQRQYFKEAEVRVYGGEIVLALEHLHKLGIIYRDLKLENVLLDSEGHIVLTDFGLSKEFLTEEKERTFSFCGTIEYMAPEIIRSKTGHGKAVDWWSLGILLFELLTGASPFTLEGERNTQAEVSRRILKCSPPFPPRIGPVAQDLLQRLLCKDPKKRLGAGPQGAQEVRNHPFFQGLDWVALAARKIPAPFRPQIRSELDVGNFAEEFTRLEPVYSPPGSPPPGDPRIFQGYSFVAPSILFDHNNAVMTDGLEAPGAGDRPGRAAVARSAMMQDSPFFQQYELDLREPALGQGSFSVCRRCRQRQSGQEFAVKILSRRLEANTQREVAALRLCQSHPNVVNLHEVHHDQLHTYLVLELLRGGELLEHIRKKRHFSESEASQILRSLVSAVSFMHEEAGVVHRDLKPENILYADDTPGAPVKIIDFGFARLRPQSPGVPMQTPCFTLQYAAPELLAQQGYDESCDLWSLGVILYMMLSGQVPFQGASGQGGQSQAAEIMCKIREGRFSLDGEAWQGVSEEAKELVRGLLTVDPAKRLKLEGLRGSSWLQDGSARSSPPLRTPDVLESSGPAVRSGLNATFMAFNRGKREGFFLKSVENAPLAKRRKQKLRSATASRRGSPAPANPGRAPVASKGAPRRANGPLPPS
Assay [16] has as its target Mitogen-activated protein kinase 1 (Homo sapiens) (UniProt P28482). In words: Inhibition of human MAPK2 assessed as residual activity at 10 uM.
The target in assay [17] is cGMP-dependent protein kinase 1 (Homo sapiens) (UniProt Q13976). In words: Inhibition of recombinant full-length human PKG1beta assessed as residual activity at 10 uM using RRRLSFAEPG as substrate measured after 40 mins in presence of [gamma33P]ATP by scintillation counting method.
Assay [18] relates to Serine/threonine-protein kinase Nek4 (Homo sapiens), P51957 [P225A]. In words: Inhibition of recombinant full-length human NEK4 P225A mutant assessed as residual activity at 10 uM using myelin basic protein as substrate measured after 40 mins in presence of [gamma33P]ATP by scintillation counting method.
In assay [19] the target is Myosin light chain kinase 2, skeletal/cardiac muscle (Homo sapiens) (UniProt Q9H1R3). In words: Inhibition of recombinant full-length human MYLK2 assessed as residual activity at 10 uM using KKLNRTLSFAEPG as substrate measured after 40 mins in presence of [gamma33P]ATP by scintillation counting method.
Chain of Myosin light chain kinase 2, skeletal/cardiac muscle (Homo sapiens) (Q9H1R3 whole entry): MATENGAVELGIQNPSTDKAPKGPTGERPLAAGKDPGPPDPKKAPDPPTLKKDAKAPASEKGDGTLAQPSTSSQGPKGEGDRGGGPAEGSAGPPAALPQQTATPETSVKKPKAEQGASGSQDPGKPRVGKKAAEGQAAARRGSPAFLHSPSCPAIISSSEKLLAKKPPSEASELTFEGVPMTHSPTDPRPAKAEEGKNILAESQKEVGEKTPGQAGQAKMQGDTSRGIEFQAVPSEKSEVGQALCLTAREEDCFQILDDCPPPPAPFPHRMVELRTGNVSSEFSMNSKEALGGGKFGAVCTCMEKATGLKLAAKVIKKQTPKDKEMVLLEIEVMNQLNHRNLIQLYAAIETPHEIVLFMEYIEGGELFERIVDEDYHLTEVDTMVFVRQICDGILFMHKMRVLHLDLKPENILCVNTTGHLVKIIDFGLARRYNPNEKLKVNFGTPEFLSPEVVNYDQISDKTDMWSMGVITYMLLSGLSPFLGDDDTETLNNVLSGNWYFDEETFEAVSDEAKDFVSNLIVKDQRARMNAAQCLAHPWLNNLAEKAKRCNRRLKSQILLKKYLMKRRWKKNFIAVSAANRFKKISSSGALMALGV
The target of assay [20] is Tyrosine-protein kinase Lck (Homo sapiens) (UniProt P06239). In words: Inhibition of recombinant full-length human Lck assessed as residual activity at 10 uM using KVEKIGEGTYGVV as substrate measured after 40 mins in presence of [gamma33P]ATP by scintillation counting method.
The test system of assay [21] is PI3-kinase p110-alpha/p85-alpha (Homo sapiens), P27986+P42336 [E545K]. In words: Inhibition of recombinant full-length human PI3K p110alpha/p85alpha E545K mutant assessed as residual activity at 10 uM using phosphatidylinositol-4, 5-bisphosphate as substrate measured after 40 mins by fluorescence assay. The class given is protein-complex assay.
For assay [22], the target named is cGMP-dependent protein kinase 2 (Homo sapiens) (UniProt Q13237). In words: Inhibition of recombinant full-length human PRKG2 assessed as residual activity at 10 uM using KKLRRTLSFAEPG as substrate measured after 40 mins in presence of [gamma33P]ATP by scintillation counting method.
Chain of cGMP-dependent protein kinase 2 (Homo sapiens) (Q13237 whole entry): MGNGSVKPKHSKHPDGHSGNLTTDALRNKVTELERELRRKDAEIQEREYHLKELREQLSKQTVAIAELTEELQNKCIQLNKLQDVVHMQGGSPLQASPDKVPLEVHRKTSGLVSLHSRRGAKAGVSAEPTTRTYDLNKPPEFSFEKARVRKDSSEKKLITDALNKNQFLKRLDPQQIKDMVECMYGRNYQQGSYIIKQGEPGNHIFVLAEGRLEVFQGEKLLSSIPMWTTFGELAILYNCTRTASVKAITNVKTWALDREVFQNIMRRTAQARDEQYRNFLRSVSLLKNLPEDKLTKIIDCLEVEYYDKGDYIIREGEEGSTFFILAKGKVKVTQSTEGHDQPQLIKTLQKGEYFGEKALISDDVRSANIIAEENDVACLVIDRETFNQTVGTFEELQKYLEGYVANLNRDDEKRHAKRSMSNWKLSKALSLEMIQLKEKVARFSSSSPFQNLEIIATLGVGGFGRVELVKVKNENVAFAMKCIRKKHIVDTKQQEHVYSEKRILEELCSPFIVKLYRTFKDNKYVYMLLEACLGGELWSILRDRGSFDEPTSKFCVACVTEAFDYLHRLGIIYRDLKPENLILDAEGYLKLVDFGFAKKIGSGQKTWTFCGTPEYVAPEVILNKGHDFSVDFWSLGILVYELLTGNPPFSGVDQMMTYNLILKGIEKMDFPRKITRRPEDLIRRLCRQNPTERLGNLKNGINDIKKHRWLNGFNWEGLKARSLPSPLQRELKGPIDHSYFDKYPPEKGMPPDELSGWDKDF

The structures appear in SMILES notation. Activity calls are given as the source filed them. No cut-off for these calls is given here.

Turning to `Cc1cc(C)c(CNc2nc(Cl)nc3c2ncn3C2CCCC2)c(=O)[nH]1`, the Activity turned out to be 107% in [1]; 95.5% in [2]; 101% in assay [3]; 105% in assay [4]; 112% in [5]; 103% in assay [6]. Also, the Activity was 107% in assay [7]; 5.35% with HCT-116 [8]; 99.5% in assay [10]; 106% in assay [11]; 115% in assay [12]; 97% in assay [13]. Besides, the Activity in assay [14] was determined as 98%; in [15], 120%; in [16] it was 104%; in [17] it was 112%; in assay [18], 104%; in assay [19] it was 98%. The figures for the Activity in assay [20], in assay [21] and in assay [22] were 84.5%, 93.5% and 98%, respectively. Moreover, the inhibition at 0.05 µM in the assay on HCT-116 [9] amounted to 100%. Moreover, the outcome at Tubulin (Homo sapiens) was Active.
